# Source: article PMC11117660, “Novel Angiotensin-Converting Enzyme-Inhibitory Peptides Obtained from Trichiurus lepturus: Preparation, Identification and Potential Antihypertensive Mechanism” (Biomolecules, 2024)
# pIC50: −log10 of the molar value. Read-outs that look alike come from different tables or passages of the source. Where no end group is shown, it is not given here.
# Experiments:
# [1] = molecular target: T1, Angiotensin I-converting enzyme (ACE) (Oryctolagus cuniculus, UniProt P12822); assay: ACE-inhibitory activity (FAPGG substrate, absorbance at 340 nm); assay type: biochemical, rabbit; conditions: synthetic peptides, Figure 7; experiments in triplicate
# T1 construct: sourced from rabbit lungs; purchased Sigma-Aldrich (St. Louis, MO, USA); host or cells: rabbit lung tissue
# T1 sequence (P12822 34-1310): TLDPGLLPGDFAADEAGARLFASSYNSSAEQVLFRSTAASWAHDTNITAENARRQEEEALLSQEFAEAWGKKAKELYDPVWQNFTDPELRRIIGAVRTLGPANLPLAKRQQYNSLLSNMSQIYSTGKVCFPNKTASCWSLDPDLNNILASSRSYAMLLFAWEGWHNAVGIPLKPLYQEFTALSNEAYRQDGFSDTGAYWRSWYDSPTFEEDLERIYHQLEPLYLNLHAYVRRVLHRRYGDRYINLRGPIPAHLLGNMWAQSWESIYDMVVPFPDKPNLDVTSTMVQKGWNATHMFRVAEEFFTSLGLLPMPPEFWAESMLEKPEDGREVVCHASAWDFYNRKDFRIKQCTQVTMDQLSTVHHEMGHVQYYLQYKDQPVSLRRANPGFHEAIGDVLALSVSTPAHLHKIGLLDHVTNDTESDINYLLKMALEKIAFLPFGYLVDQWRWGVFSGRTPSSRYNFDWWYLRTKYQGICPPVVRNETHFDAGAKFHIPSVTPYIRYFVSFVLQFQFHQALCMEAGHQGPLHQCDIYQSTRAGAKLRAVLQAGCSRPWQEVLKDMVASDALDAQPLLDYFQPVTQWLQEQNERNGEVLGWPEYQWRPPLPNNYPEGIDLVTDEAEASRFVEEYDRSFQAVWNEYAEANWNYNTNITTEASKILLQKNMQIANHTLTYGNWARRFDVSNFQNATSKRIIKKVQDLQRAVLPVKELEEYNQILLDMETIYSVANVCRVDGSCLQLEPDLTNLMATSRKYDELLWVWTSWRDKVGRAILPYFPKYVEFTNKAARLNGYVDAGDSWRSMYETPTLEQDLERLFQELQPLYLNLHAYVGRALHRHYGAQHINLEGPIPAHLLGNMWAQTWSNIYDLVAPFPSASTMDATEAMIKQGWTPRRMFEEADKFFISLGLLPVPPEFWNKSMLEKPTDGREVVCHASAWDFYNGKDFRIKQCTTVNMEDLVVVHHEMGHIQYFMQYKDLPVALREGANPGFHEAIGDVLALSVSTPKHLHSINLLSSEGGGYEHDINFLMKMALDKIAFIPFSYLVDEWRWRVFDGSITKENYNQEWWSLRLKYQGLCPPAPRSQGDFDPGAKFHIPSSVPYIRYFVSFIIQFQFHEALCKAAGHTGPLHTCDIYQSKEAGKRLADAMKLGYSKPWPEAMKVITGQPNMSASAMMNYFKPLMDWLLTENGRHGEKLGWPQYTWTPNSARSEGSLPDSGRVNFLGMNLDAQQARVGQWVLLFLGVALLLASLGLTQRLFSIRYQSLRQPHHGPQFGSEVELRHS
# Experimental: ACE-inhibitory activity was assessed by following the experimental procedure reported by Dou et al., with slight modifications. […] The negative control group was substituted with 100 μL of borate-buffered HEPES. The initial absorbance values of a1 and b1 for both the blank and sample groups were then measured at 340 nm (Thermo Fisher, Waltham, MA, USA). The sample group was then incubated at 37 °C for 30 min, and subsequently, the absorbance values were read again at 340 nm (a2, b2). […] The initial absorbance of the blank: a1-blank; b1-sample. a2: the absorbance values after incubation at 37 °C for 30 min. a2: blank; b2: samples.
# [2] = molecular target: T1, Angiotensin I-converting enzyme (ACE); assay: In vitro simulated oral gastrointestinal digestion, ACE-inhibition read-out; assay type: biochemical, rabbit; conditions: initially (before digestion), captopril as reference, Figure 5b
# Experimental: ACE-inhibitory activity was assessed by following the experimental procedure reported by Dou et al., with slight modifications. A solution of borate-buffered HEPES (50 mM, pH 8.3) was dispensed into a 96-well plate, followed by the addition of samples (100 µL), ACE (50 µL, 0.1 U/mL, prepared from 50 mM borate buffer pH 8.3), and FAPGG(N-[3-(2-Furyl)acryloyl]-Phe-Gly-Gly) (50 µL, 1 mM) into each well. The negative control group was substituted with 100 µL of borate-buffered HEPES. The initial absorbance values of a1 and b1 for both the blank and sample groups were then measured at 340 nm (Thermo Fisher, Waltham, MA, USA). The sample group was then incubated at 37 °C for 30 min, and subsequently, the absorbance values were read again at 340 nm (a2, b2). (1) ACE inhibition rate=A−B/A×100% where A = a1 − a2, and B = b1 − b2. The initial absorbance of the blank: a1—blank; b1—sample. a2: the absorbance values after incubation at 37 °C for 30 min. a2: blank; b2: samples.
# The in vitro digestion process was utilized. A quantity of 1 mg of the sample was dissolved in 1 mL of water and preheated in a water bath at 37 °C. Then, it was mixed with 1 mL of artificial saliva whose pH was adjusted to pH 6.8. The mixture was then agitated at 100 rpm for 1 min at 37 °C. Subsequently, the pH was adjusted to pH 2.0 using 1 M HCl and added in equal amounts to the simulated gastric digest. […]
# ACE = conditions: cited from earlier work
# Experimental: According to the literature, ACE-inhibitory peptides with an IC50 between about 0.32 and 1000 μM have the potential to lower blood pressure. […] We therefore hypothesized that the peptides from FAGDDAPR, QGPIGPR, and GPTGPAGPR may have antihypertensive effects. […] Subsequently, peptides from the ribbonfish hydrolysates were isolated and identified through a combination of filtration and gel filtration chromatography techniques. […] Similarly, Dong et al. used alkaline protease to hydrolyze tilapi ...
# [3] = literature examples of antihypertensive peptides, the reference is not clearly printed, read-out: IC50
substance,measurement,setting,value
FAGDDAPR [FAGDDAPR],pIC50,[1],3.58
same,ACE-inhibitory activity lower than that of captopril,[2],31.17%
FRVW,pIC50,"ACE; from Pinctada fucata, read-out: ACE-inhibitory IC50",4.74
GPTGPAGPR [GPTGPAGPR],pIC50,[1],3.77
LEPWR,pIC50,"ACE; from Pacific saury neutral protease hydrolysate, read-out: ACE-inhibitory IC50",4.00
QGPIGPR [QGPIGPR],pIC50,[1],4.09
VGINYW,pIC50,ACE; [3],4.82
VGLFPSRSF [literature oligopeptide from tilapia (Oreochromis niloticus) skin hydrolysate],pIC50,"ACE; from tilapia skin alkaline protease hydrolysate, read-out: ACE-inhibitory IC50",4.21
WAGP,pIC50,ACE; [3],3.85
